“Also recorded” adds a separate entry of the source.
Legend:
Type in all cases: cell-based, human
HEY cells [1] = assay: qRT-PCR of EMT marker mRNAs in transfected HEY cells
Experimental: (§1) 6×10^4 cells per well were seeded in 24-well plates. After 24 h, cells were transfected with 30 nM of miR-429 and miR-320 miRNA oligonucleotides (Ambion, Austin, Tex.) using Lipofectamine 2000 reagent (Invitrogen, Carlsbad, Calif.). The Ambion Pre-miRNA Precursor Negative Control was used as a control. Three days after transfection, cells were split and transfected again. This process was repeated every 3 days until 21 days when cells were assayed for response.
Total RNA was extracted from cells using the miRVana miRNA isolation kit (Ambion). MicroRNA expression was carried our using TaqMan microRNA assays (Applied Biosystems, Carlsbad, Calif.) with human U6 as the endogenous control. For mRNA quantitation, RNA (4.0 μg) was reversed transcribed into cDNA using the Superscript III First-strand Synthesis System (Invitrogen) according to the manufacturer's instructions using sequence specific primers. Real-time PCR was performed using Power SYBR Green PCR Master Mix (Bio-Rad, Hercules, Calif.) and data normalized to glyceraldehydes-3-phosphate-dehydrogenase (GAPDH). Each transfection experiment was carried out in triplicate with 3 PCR reactions performed per transfection. The PCR results were analyzed by 1-way Analysis of Variance (ANOVA) and the Newman-Keuls-Student t test. A p value of <0.05 was considered significant.

HEY cells [2] = assay: serum-induced migration, trans-well chamber assay; conditions: miR-429 transfected HEY cells vs negative control
Experimental: (§2) For the migration and invasion assays, 2.5×10^3 overnight serum starved cells in serum-free media were added to the top chambers of trans-well plates (8 μm pore size; BD, Franklin Lakes, N.J.) and media containing 10% fetal calf serum (FCS) were added to the bottom chambers. After 8-12 h, the non-migrating (top) cells were removed and the invading (bottom) cells were counted. All assays were done in triplicate. For the wound-healing assay, 2.5×10^5 cells were seeded into six-well plates. After 24 h, a wound was incised, detached cells removed and fresh media added. Photos were taken after 8 hrs to monitor the invasion of cells into the wounded area.
(§3) To further explore the effects of ectopic expression of miR-429 in HEY cells, we looked for changes in cellular functions frequently associated with EMT. For example, ovarian and other types of cancer cells undergoing EMT typically display increased motility/migration and invasiveness. […] Relative invasiveness was also measured by monitoring serum-induced invasion through a matrigel layer.

HEY cells [3] = assay: morphology of HEY cells after microRNA transfection; conditions: transfected with 30 nM miRNA, vs negative control
Text: The OVCAR3 cell line was originally established from the ascites of a patient with poorly differentiated papillary epithelial OC [Hamilton et al., Cancer Res 1985, 45:3668-76]. The OVCAR3 cell line was obtained from the American Type Culture Collection (Manassas, Va.). The HEY cell line was derived from a patient with moderately differentiated papillary cystadenocarcinoma of the ovary [Buick et al., Cancer Res 1985, 45:3668-76]. The HEY cell line was kindly provided by Gordon Mills, Department of Molecular Therapeutics, University of Texas, MD Anderson Cancer Center.
as §1

HEY cells [4] = assay: serum-induced invasion through a matrigel layer; conditions: miR-429 transfected HEY cells vs negative control
Experimental: as §2, §3

HEY cells [5] = assay: anchorage-independent growth in soft agar; conditions: 8 days in soft agar, vs negative control
Experimental: Anchorage independent growth was examined using Cell Biolab's (San Diego, Calif.) soft agar kit according to the manufacturer's protocol. Briefly, 5,000 cells were grown in a 0.3% low melting temperature agar matrix. After 8 days of incubation, the agar matrix was solubilized, cells stained and absorbance recorded at 520 nm. The optical density (OD) was measured in a 96-well plate reader using a 485/520 nm filter set.
Anchorage-independent growth is another characteristic of mesenchymal cells and is considered a hallmark of cellular transformation [Takeyama et al., Cancer Lett 2010; 96:216-24]. We tested anchorage-independent growth of HEY cells transfected with miR-429 relative to controls.

With “miR-429: miR-200 family member; mature miRNA UAAUACUGUCUGGUAAAACCGU (SEQ ID NO: 6); miRNA oligonucleotide (Ambion) transfected at 30 nM (listed as RNA, chemistry not given here; listed as Homo sapiens) [miR-200 family member; miRNA oligonucleotide (Ambion) transfected at 30 nM]” as the substance, how does the “levels of E-cadherin mRNA” value (HEY cells [1]) read?
Its value is “concomitant increase; also recorded: significantly higher”.

And the “levels of FN1 (fibronectin) mRNA” value (HEY cells [1])?
The value was “No significant difference”.

What about the “levels of N-cadherin mRNA” value (HEY cells [1]) of the same substance?
The value was “No significant difference”.

What about the “levels of VIM (vimentin) mRNA” value (HEY cells [1]) of the same substance?
Its value is “No significant difference”.

What about the “levels of ZEB1 mRNA” value (HEY cells [1]) of the same substance?
The value was “significant decrease; also recorded: significantly lower”.

And the “levels of ZEB2 mRNA” value (HEY cells [1])?
Its value is “significant decrease; also recorded: significantly lower”.

What about the “migration through pores, slower than negative controls” value (HEY cells [2]) of the same substance?
The value was greater than 2 fold.

What about the “morphological change of HEY cells” value (HEY cells [3]) of the same substance?
The value was “morphological change from an elongated, spindle-shaped, mesenchymal phenotype to a more rounded, epithelial-like phenotype; also recorded: change from an elongated mesenchymal-like morphology to a rounded epithelial-like morphology”.

What about the “decrease in invasion relative to controls” value (HEY cells [4]) of the same substance?
Its value is greater than 5 fold.

And the anchorage-independent growth (HEY cells [5])?
The anchorage-independent growth was “significant suppression; also recorded: significantly reduced”.

Source: patent US8895509B2, “MIR-200 family induces mesenchymal-to-epithelial transition (MET) in ovarian cancer cells” (Georgia Tech Research Corporation, priority 2010, dated 2014)
